The text below walks through data of patent US8105798B2, “Cytoplasmic activity of retinoid X receptor and its regulation by ligands and dimerization” (The Burnham Institute, priority 2003, dated 2012).

The target in experiment [1] is T1, RXRα LBD protein (Homo sapiens, UniProt P19793).
T1 construct: made in house; host or cells: E. coli BL21 (pET vector, Novagen)
T1 sequence (P19793 224-462): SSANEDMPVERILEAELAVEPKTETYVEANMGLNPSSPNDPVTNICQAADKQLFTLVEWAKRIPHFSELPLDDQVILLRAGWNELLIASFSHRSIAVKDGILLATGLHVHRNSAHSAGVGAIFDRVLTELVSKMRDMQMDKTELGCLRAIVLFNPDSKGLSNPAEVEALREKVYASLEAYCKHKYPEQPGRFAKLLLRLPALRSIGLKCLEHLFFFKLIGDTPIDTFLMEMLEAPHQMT
Kind of experiment: sensitivity of RXRα protein to chymotrypsin digestion. The following applies: 100 μM sulindac sulfide. The format is biochemical. Here is the method: (FIG. 12b). LBD protein was incubated in the absence (DMSO) or presence of sulindac sulfide (100.micro.M) and then subjected to digestion by chymotrypsin for 30 min. Briefly, SEQ ID No.: 11 was cloned into the pET vector system available from Novagen and the recombinant vector was transformed into and expressed in BL21 cells. Digested reactions were separated by SDS-PAGE and visualized by Commassie blue staining. 35^S RXR protein was incubated for 30 minutes at room temperature in the presence or absence of 100.micro.M sulindac sulfide. Chymotrypsin was then added to a series of labeled protein reactions at final concentrations of 0, 37.5, 75, 150 and 300.micro.g per ml, and digestion proceeded for 20 minutes.

The target of experiment [2] is T2, RXR.alpha (Homo sapiens, UniProt P19793).
T2 sequence (P19793 1-462): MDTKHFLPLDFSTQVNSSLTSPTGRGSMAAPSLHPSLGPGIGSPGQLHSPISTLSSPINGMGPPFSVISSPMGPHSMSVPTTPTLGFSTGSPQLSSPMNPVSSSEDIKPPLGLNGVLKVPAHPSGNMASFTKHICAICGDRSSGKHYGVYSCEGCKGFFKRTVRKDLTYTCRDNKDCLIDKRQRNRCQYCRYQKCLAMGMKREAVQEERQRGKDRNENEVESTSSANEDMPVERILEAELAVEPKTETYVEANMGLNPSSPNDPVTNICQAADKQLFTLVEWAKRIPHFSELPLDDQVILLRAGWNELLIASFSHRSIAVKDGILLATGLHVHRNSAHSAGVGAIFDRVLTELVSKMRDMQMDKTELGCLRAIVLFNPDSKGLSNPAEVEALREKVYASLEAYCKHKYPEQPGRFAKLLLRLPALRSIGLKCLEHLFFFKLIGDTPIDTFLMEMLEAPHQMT
Kind of experiment: isothermal titration calorimetry (ITC). The format is binding. The following applies: data not shown. Here is the method: ITC is a thermodynamic technique for monitoring the binding reaction of two components. When a protein binds a ligand, heat is either generated or absorbed, and quantitation of this heat allows very accurate determination of the binding dissociation constant (kD), reaction stoichiometry (n), enthalpy and entropy. Heat effects a small as 0.2.micro.cal can be measured and titrations can be done on as little as 1 ml of a dilute solution. (See generally, Pierce, M. M., Raman, C. S., and Nall, B. T., Methods, (1999) 19: 213-21)
(In ITC the heat of successive injections is recorded.)

The test system of experiment [3] is TR3. Nature of the experiment: subcellular localization of TR3 and RXRα/TR3 heterodimer by confocal microscopy. It is filed as cell-based. The following applies: 75 μM. As for the experimental part: FIG. 10 is a series of confocal microscope images of immunostained PC12 cells illustrating that binding of 15d-PGJ2 to RXRα induces translocation of RXRα homodimer/monomer or TR3/RXRα heterodimer from the nucleus to the cytoplasm. Expression vectors for Flag-RXRα and GFP-TR3 were transfected into PC12 cells alone or together. Cells were then treated with 15d-PGJ2 (5.micro.M) for 3 hr, then immunostained with anti-Flag antibody to detect RXRα Flag-RXRα and GFP-TR3 were visualized by confocal microscopy, and their images merged.
In the absence of TPA, both TR3 and RXRα reside mainly in the nucleus. […] (FIG. 2).
Because RXR heterodimerizes with TR3, Inventor examined the effect of 15d-PGJ2 on TR3 subcellular localization in PC12 phaeochromocytoma cells.
Either TR3 alone, RXRα alone or TR3 and RXRα was transfected into HEK293T cells. Cells were then treated with sulindac sulfide (75.micro.M) for 6 hr. RXR.alpha and TR3 localization was determined by immunostaining, and cells were also stained by DAPI. […] Thus, the effect of sulindac sulfide on the cytoplasmic localization of TR3 depends on RXRα expression, probably due to their heterodimerization. Thus, sulindac sulfide induces nuclear export of RXRα and RXRα/TR3 heterodimer. (FIG. 14b).
The effect of sulindac sulfide on mitochondrial targeting of RXRα and TR3 was determined by treating H460 lung cancer cells with 75 micro.M sulindac sulfide for 6 hours and visualization of the cellular localization of these proteins by immunostaining. A two stage detection system was used having either anti-RXR or anti TR3 as a first stage (Santa Cruz Biotechnology and Abgent, respectively). In the absence of treatment, both RXRα and TR3 were found mainly in the nucleus.

For experiment [4], the system named is H460, MGC80-3 and LNCaP cells. Nature of the experiment: cytochrome c release by immunostaining. The format is cell-based. The settings on record: 75 μM, 6 hr. Here is the method: To uncover the consequence of RXRα mitochondrial localization induced by sulindac sulfide, H460, MGC80-3 and LnCap cells were treated with or without sulindac sulfide and RXRα mitochondrial and cytochrome c release were determined by immunostaining, as described above. Cells were treated with or without sulindac sulfide (75.micro.M) for 6 hr. Cells were then stained with RXRα, Hsp6, and cytochrome c (cyt c).

For the compound `CSc1ccc(/C=C2/C(C)=C(CC(=O)O)c3cc(F)ccc32)cc1` [sulindac sulfide], the “sensitivity of RXRα protein to chymotrypsin” value in experiment [1] is “modulation of sensitivity of RXRα protein to chymotrypsin”. In addition, the “binding to RXR.alpha by ITC” value in experiment [2] is on record as “confirmed the binding”. Besides, the “mitochondrial targeting of RXRα and TR3 (Hsp60)” value in experiment [3] (H460 lung cancer cells, 6 hours) was “extensive co-localization of RXRα and TR3 with Hsp60”. Also, in experiment [3] (HEK293T cells, 6 hr), the “TR3 and RXRα localization, co-transfected” value was “both TR3 and RXRα are found in the cytoplasm”; the “TR3 localization, TR3 transfected alone” value is “does not affect the nuclear localization of TR3”. In experiment [4], the cytochrome c release entry is “massively released”.
